Earlier results in US20200179438A1, “BLOOD GLUCOSE SPIKE SUPPRESSOR, FOOD PRODUCT, AND METHOD FOR PRODUCING BLOOD GLUCOSE SPIKE SUPPRESSOR” (priority 2017, published 2020).

Settings: for time until HB purity decreases after its increase: oral administration

Structure (SMILES)	time until HB purity decreases after its increase	HB purity in the blood after oral administration (oral, reached in several minutes)
C[C@@H](O)CCOC(=O)C[C@@H](C)O [KE]	within several hours	several millimolar
C[C@@H](O)CC(=O)O [HB, (R)-3-hydroxybutyric acid]	within several hours	
